From US5288709A, “Erythromycin derivatives” (priority 1991, dated 1994)
Converted amounts (≈) assume the structure as drawn. Read-outs that look alike come from different tables or passages of the source.

Legend:
Assay in all cases: In-vitro antimicrobial activity primary screen (agar dilution MIC)
Assay type in all cases: cell-based
[1] = system: Staphylococcus aureus CMX 553; settings: Staphylococcus aureus, CMX553, 24 h, BHI agar, 20-24 h, read-out: MIC
Experimental: (§1) The antimicrobial spectra of several of the compounds of the present invention were tested as described below.
(§2) Twelve petri dishes containing successive aqueous dilutions of the test compounds, mixed with 10 mL of sterilized Brain Heart Infusion (BHI) agar (Difco 0418-01-5), were prepared. Each plate was inoculated with 1:100 (or 1:10 for slow growing strains (primarily Micrococcus and Streptococcus) dilutions of up to 32 different microorganisms, using a Steers replicator block. The inoculated plates were incubated at 35 37° C. for 20-24 hours. In addition, a control plate, using BHI agar containing no test compound, was prepared and incubated at the beginning and the end of each test.
An additional plate containing a compound having known susceptibility patterns for the organisms being tested and belonging to the same antibiotic class as the test compounds was also prepared and incubated as a further control, as well as to provide test-to test comparability. Erythromycin A was used for this purpose.
(§3) After incubation, each plate was read. The MIC (minimum inhibitory concentration) is defined as the lowest concentration of test compound yielding no growth, a slight haze, or sparsely isolated colonies on the inoculum spot as compared to the growth control containing no test compound.

[2] = system: Escherichia coli H560; settings: Escherichia coli H560, BHI agar, 20-24 h
Experimental: as §1, §2
(§4) An additional plate containing a compound having known susceptibility patterns for the organisms being tested and belonging to the same antibiotic class as the test compounds was also prepared and incubated as a further control, as well as to provide test-to test comparability.
as §3

[3] = system: Staphylococcus aureus NCTC 10649; settings: NCTC10649, BHI agar, 20-24 h, read-out: MIC
Experimental: as §1, §2, §4, §3

[4] = system: Pseudomonas aeruginosa K799/61; settings: Pseudomonas aeruginosa K799/61; BHI agar, 20-24 h; read-out: MIC
Experimental: as §1, §2, §4, §3

[5] = system: Acinetobacter SP CMX 669; settings: Acinetobacter SP CMX 669, BHI agar, 20-24 h
Experimental: as §1, §2, §4, §3

[6] = system: Pseudomonas aeruginosa A5007
Experimental: as §1, §2, §4, §3

[7] = system: Escherichia coli JUHL; settings: Escherichia coli JUHL, BHI agar, 20-24 h
Experimental: as §1, §2, §4, §3

[8] = system: Staphylococcus aureus 642A; settings: BHI agar, 20-24 h, read-out: MIC
Experimental: as §1, §2, §4, §3

[9] = system: Streptococcus pyrogenes EES61; settings: BHI agar, 20-24 h, read-out: MIC
Experimental: as §1, §2, §4, §3

[10] = system: Micrococcus luteus ATCC 9341; settings: ATCC9341, BHI agar, 20-24 h, read-out: MIC
Experimental: as §1, §2, §4, §3

[11] = system: Streptococcus pyrogenes 2548 INDUC; settings: BHI agar, 20-24 h
Experimental: as §1, §2, §4, §3

[12] = system: Escherichia coli DC-2; settings: Escherichia coli DC-2, BHI agar, 20-24 h
Experimental: as §1, §2, §4, §3

[13] = system: Streptococcus agalactiae CMX 508; settings: Streptococcus agalactiae, CMX508, 24 h, BHI agar, 20-24 h
Experimental: as §1, §2, §4, §3

[14] = system: Staphylococcus aureus A5177; settings: Staphylococcus aureus, A5177, 24 h
Experimental: as §1, §2, §4, §3

[15] = system: Enterococcus faecium ATCC 8043
Experimental: as §1, §2, §4, §3

[16] = system: Enterobacter aerogenes ATCC 13048; settings: Klebsiella aerogenes, Enterobacter aerogenes ATCC 13048, BHI agar, 20-24 h
Experimental: as §1, §2, §4, §3

[17] = system: Pseudomonas aeruginosa BMH10; settings: BHI agar, 20-24 h
Experimental: as §1, §2, §4, §3

[18] = system: Providencia stuartii CMX 640
Experimental: as §1, §2, §4, §3

[19] = system: Staphylococcus epidermidis 3519; settings: BHI agar, 20-24 h, read-out: MIC
Experimental: as §1, §2, §4, §3

[20] = system: Streptococcus bovis A5169; settings: Streptococcus equinus, A5169, 24 h, BHI agar, 20-24 h
Experimental: as §1, §2, §4, §3

[21] = system: Escherichia coli SS; settings: Escherichia coli, 24 h, BHI agar, 20-24 h
Experimental: as §1, §2, §4, §3

[22] = system: Staphylococcus aureus ATCC 6538P; settings: Staphylococcus aureus, ATCC6538P, 24 h, BHI agar, 20-24 h
Experimental: as §1, §2, §4, §3

[23] = system: Pseudomonas cepacia 2961; settings: BHI agar, 20-24 h
Experimental: as §1, §2, §4, §3

[24] = system: Staphylococcus aureus 45; settings: BHI agar, 20-24 h
Experimental: as §1, §2, §4, §3

[25] = system: Staphylococcus aureus 45 RAR2; settings: Staphylococcus aureus, 45RAR2, 24 h, BHI agar, 20-24 h
Experimental: as §1, §2, §4, §3

[26] = system: Pseudomonas aeruginosa K799/WT; settings: Pseudomonas aeruginosa, K799/WT, 24 h
Experimental: as §1, §2, §4, §3

[27] = system: Micrococcus luteus ATCC 4698; settings: Micrococcus luteus, ATCC4698, 24 h, BHI agar, 20-24 h
Experimental: as §1, §2, §4, §3

| SMILES | MIC [1] [µg/mL] | MIC [3] [µg/mL] | MIC [4] [µg/mL] | MIC [8] [µg/mL] | MIC [9] [µg/mL] | MIC [10] [µg/mL] | MIC [13] [µg/mL] | MIC [14] [µg/mL] | MIC [19] [µg/mL] | MIC [20] [µg/mL] | MIC [21] [µg/mL] | MIC [22] [µg/mL] | MIC [25] [µg/mL] | MIC [27] [µg/mL] | other results |
| --- | --- | --- | --- | --- | --- | --- | --- | --- | --- | --- | --- | --- | --- | --- | --- |
| CC[C@H]1OC(=O)[C@H](C)[C@@H](O[C@H]2C[C@@](C)(OC)[C@@H](O)[C@H](C)O2)[C@H](C)[C@@H](O[C@@H]2O[C@H](C)C[C@H](N(C)C)[C@H]2O)[C@](C)(OC)C[C@@H](C)[C@@H]2O[C@@]1(C)[C@@H](O)[C@H]2C [Example 28A] | 0.2 (≈ 0.273 µM) | 0.2 (≈ 0.273 µM) | 0.78 (≈ 1.07 µM) | 0.2 (≈ 0.273 µM) | 0.02 (≈ 0.0273 µM) | 0.05 (≈ 0.0683 µM) | 0.05 (≈ 0.0683 µM) | 0.2 (≈ 0.273 µM) | 0.2 (≈ 0.273 µM) | 0.02 (≈ 0.0273 µM) | 0.2 (≈ 0.273 µM) | 0.2 (≈ 0.273 µM) | 0.2 (≈ 0.273 µM) | 0.1 (≈ 0.137 µM) | MIC ([2]; Escherichia coli, H560, 24 h): 25 µg/mL (≈ 34.2 µM); MIC ([5]; Acinetobacter, SPCMX669, 24 h): 6.2 µg/mL (≈ 8.47 µM); MIC ([6]; Pseudomonas aeruginosa, A5007, 24 h): > 100 µg/mL; MIC ([7]; Escherichia coli, 24 h): 25 µg/mL (≈ 34.2 µM); MIC ([11]; Streptococcus, 2548INDUC, 24 h): 3.1 µg/mL (≈ 4.24 µM); MIC ([12]; Escherichia coli, DC2, 24 h): 25 µg/mL (≈ 34.2 µM); MIC ([15]; ATCC8043, Enterococcus faecium ATCC 8043, BHI agar, 20-24 h, read-out: MIC): 0.05 µg/mL (≈ 0.0683 µM); MIC ([16]; ATCC13048, 24 h): 50 µg/mL (≈ 68.3 µM); MIC ([17]; Pseudomonas aeruginosa, BMH10, 24 h): 50 µg/mL (≈ 68.3 µM); MIC ([18]; Providencia stuartii, CMX640, 24 h): > 100 µg/mL; MIC ([23]; Burkholderia cepacia, 2961, 24 h): > 100 µg/mL; MIC ([24]; Staphylococcus aureus, 45, 24 h): 3.1 µg/mL (≈ 4.24 µM); MIC [26]: > 100 µg/mL |
| CC[C@H]1OC(=O)[C@H](C)[C@@H](O[C@H]2C[C@@](C)(OC)[C@@H](NC(N)=O)[C@H](C)O2)[C@H](C)[C@@H](O[C@@H]2O[C@H](C)C[C@H](N(C)C)[C@H]2O)[C@](C)(O)C[C@@H](C)[C@@H]2O[C@@]1(C)C(=O)[C@H]2C [Example 32, (4"S,9S)-4"-[(aminocarbonyl)amino]-9-deoxo-4",11,12-trideoxy-9,12-epoxy-11-oxoerythromycin A] | 0.2 (≈ 0.264 µM) | 0.1 (≈ 0.132 µM) | 0.78 (≈ 1.03 µM) | 0.1 (≈ 0.132 µM) | 0.02 (≈ 0.0264 µM) | 0.05 (≈ 0.066 µM) | 0.05 (≈ 0.066 µM) | > 100 | 0.2 (≈ 0.264 µM) | 0.05 (≈ 0.066 µM) | 0.2 (≈ 0.264 µM) | 0.1 (≈ 0.132 µM) | 0.39 (≈ 0.515 µM) | 0.2 (≈ 0.264 µM) | MIC ([2]; read-out: MIC): 100 µg/mL (≈ 132 µM); MIC ([5]; SPCMX669, read-out: MIC): 100 µg/mL (≈ 132 µM); MIC ([6]; Pseudomonas aeruginosa A5007, BHI agar, 20-24 h, read-out: MIC): > 100 µg/mL; MIC ([7]; read-out: MIC): 100 µg/mL (≈ 132 µM); MIC ([11]; read-out: MIC): 0.78 µg/mL (≈ 1.03 µM); MIC ([12]; DC2, read-out: MIC): 100 µg/mL (≈ 132 µM); MIC ([15]; Enterococcus faecium, ATCC8043, 24 h): 0.2 µg/mL (≈ 0.264 µM); MIC ([16]; ATCC13048, read-out: MIC): 100 µg/mL (≈ 132 µM); MIC ([17]; read-out: MIC): 100 µg/mL (≈ 132 µM); MIC ([18]; CMX640, Providencia stuartii CMX 640, BHI agar, 20-24 h, read-out: MIC): > 100 µg/mL; MIC ([23]; Burkholderia cepacia, read-out: MIC): > 100 µg/mL; MIC ([24]; read-out: MIC): 0.2 µg/mL (≈ 0.264 µM); MIC ([26]; Pseudomonas aeruginosa K799/WT, BHI agar, 20-24 h): 50 µg/mL (≈ 66 µM) |
